# Biological target: Pim-1 (Homo sapiens (Human), UniProt P11309)
# Assay: Pim kinase binding activity assay (Example 901), PIM-1 enzyme, Caliper microfluidic peptide phosphorylation
# Format: biochemical
# Settings: 20 pM PIM-1, 10 μM ATP, 1 μM FAM-peptide, 90 minutes at room temperature
# Procedure: Pim Kinase Binding Activity
# A fluorescent-labeled Pim-specific peptide substrate, was custom synthesized by American Peptide Company (Sunnyvale, Calif.). Reaction Buffer contained 10 mM HEPES, pH 7.2, 10 mM MgCl2, 0.01% Tween 20, 2 mM DTT. Termination Buffer contained 190 mM HEPES, pH 7.2, 0.015% Brij-35, 0.2% Coating Reagent 3 (Caliper Life Sciences, Hopkinton, Mass.), 20 mM EDTA. Separation Buffer contained 100 mM HEPES, pH 7.2, 0.015% Brij-35, 0.1% Coating Reagent 3, 1:200 Coating Reagent 8 (Caliper Life Sciences, Hopkinton, Mass.), 10 mM EDTA and 5% DMSO.
# PIM reactions were carried out in a final volume of 10 μL per well in a 384-well plate. A standard enzymatic reaction, initiated by the addition of 5 μL 2×ATP and test compound to 5 μL of 2× enzyme and FAM-peptide, contained 20 pM PIM-1, 50 pM PIM-2, or 55 pM PIM-3, 1 μM FAM-peptide, and 10 μM ATP, in Reaction Buffer. After 90 minutes of incubation at room temperature, the phosphorylation reaction was stopped by the addition of 10 μL Termination Buffer. The product and substrate in each independent reaction were separated on a 12-sipper microfluidic chip (Caliper Life Sciences, Hopkinton, Mass.) run on a Caliper LC3000® (Caliper Life Sciences, Hopkinton, Mass.). The separation of product and substrate was optimized by choosing voltages and pressure using Caliper's Optimizer software (Hopkinton, Mass.). […] The product and substrate fluorophore were excited at 488 nm and detected at 530 nm. Substrate conversion was calculated from the electropherogram using HTS Well Analyzer software (Caliper Life Sciences, Hopkinton, Mass.). Ki values for the test compound were calculated.
# Pim-1, sequence (P11309 whole entry): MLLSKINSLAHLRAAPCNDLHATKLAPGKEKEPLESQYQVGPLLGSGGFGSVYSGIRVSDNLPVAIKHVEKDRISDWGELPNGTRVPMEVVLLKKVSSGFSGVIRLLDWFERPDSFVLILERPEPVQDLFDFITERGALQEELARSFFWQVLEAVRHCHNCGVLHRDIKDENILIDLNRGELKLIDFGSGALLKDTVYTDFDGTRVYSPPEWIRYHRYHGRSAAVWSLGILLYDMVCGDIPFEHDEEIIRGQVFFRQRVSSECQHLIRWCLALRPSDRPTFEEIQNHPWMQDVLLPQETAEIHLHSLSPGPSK
row,SMILES,Ki [nM]
1,"Cc1n[nH]c2cnc(-c3cncc(F)c3)cc12 [Example 123, 5-(5-fluoropyridin-3-yl)-3-methyl-1H-pyrazolo[3,4-c]pyridine]",737
2,"N[C@@H]1CCCN(c2nc(-c3n[nH]c4cnc(-c5cccnc5)cc34)ccc2Br)CC1 [Example 313, (R)-1-(3-bromo-6-(5-(pyridin-3-yl)-1H-pyrazolo[3,4-c]pyridin-3-yl)pyridin-2-yl)azepan-4-amine]",0.028
3,"N[C@@H]1CCCN(c2ccc(-c3n[nH]c4cnc(-c5cccnc5)cc34)cn2)C1 [Example 191, (R)-1-(5-(5-(pyridin-3-yl)-1H-pyrazolo[3,4-c]pyridin-3-yl)pyridin-2-yl)piperidin-3-amine]",0.404
4,"N#CCn1cc(-c2cc3c(-c4cccc(N5CCNCC5)n4)n[nH]c3cn2)cn1 [Example 473, 2-(4-(3-(6-(piperazin-1-yl)pyridin-2-yl)-1H-pyrazolo[3,4-c]pyridin-5-yl)-1H-pyrazol-1-yl)acetonitrile]",0.022
5,"N#Cc1cc2c(-c3cccc(N4CCNCC4)n3)n[nH]c2cn1 [Example 400, 3-(6-(piperazin-1-yl)pyridin-2-yl)-1H-pyrazolo[3,4-c]pyridine-5-carbonitrile]",51.1
6,"N[C@H]1CCC[C@H](Nc2cccc(-c3n[nH]c4cnc(-c5cccnc5)cc34)n2)C1 [Example 353, (1S,3S)-N1-(6-(5-(pyridin-3-yl)-1H-pyrazolo[3,4-c]pyridin-3-yl)pyridin-2-yl)cyclohexane-1,3-diamine]",0.397
7,"FC1(c2cccc(-c3n[nH]c4cnc(-c5cccnc5)cc34)n2)CCNCC1 [Example 421, 3-(6-(4-fluoropiperidin-4-yl)pyridin-2-yl)-5-(pyridin-3-yl)-1H-pyrazolo[3,4-c]pyridine]",0.105
8,"CN1CCN(c2cc3c(-c4ccccc4F)n[nH]c3cn2)CC1=O [Example 339, 4-(3-(2-fluorophenyl)-1H-pyrazolo[3,4-c]pyridin-5-yl)-1-methylpiperazin-2-one]",5500
9,"c1cncc(-c2cc3c(-c4cc[nH]n4)n[nH]c3cn2)c1 [Example 193, 3-(1H-pyrazol-3-yl)-5-(pyridin-3-yl)-1H-pyrazolo[3,4-c]pyridine]",2.63
10,"NC1CCCN(c2cccc(-c3n[nH]c4cnc(-c5cccnc5)cc34)n2)CC1 (stereo not drawn) [Example 197, 1-(6-(5-(pyridin-3-yl)-1H-pyrazolo[3,4-c]pyridin-3-yl)pyridin-2-yl)azepan-4-amine]",0.038
11,"NCC1CCN(c2cccc(-c3n[nH]c4cnc(-c5cccnc5)cc34)n2)CC1 [Example 278, (1-(6-(5-(pyridin-3-yl)-1H-pyrazolo[3,4-c]pyridin-3-yl)pyridin-2-yl)piperidin-4-yl)methanamine]",0.1
12,"CCn1cc(-c2cc3c(-c4cccc(N5C[C@@H](N)C[C@@H](F)C5)n4)n[nH]c3cn2)cn1 [Example 385, (3S,5R)-1-(6-(5-(1-ethyl-1H-pyrazol-4-yl)-1H-pyrazolo[3,4-c]pyridin-3-yl)pyridin-2-yl)-5-fluoropiperidin-3-amine]",0.131
13,"N[C@@H]1CCCN(c2nccc(-c3n[nH]c4cnc(-c5cccnc5)cc34)n2)C1 [Example 300, (R)-1-(4-(5-(pyridin-3-yl)-1H-pyrazolo[3,4-c]pyridin-3-yl)pyrimidin-2-yl)piperidin-3-amine]",0.07
14,"Cc1n[nH]c2cnc(-c3cnn(C)c3)cc12 [Example 127, 3-methyl-5-(1-methyl-1H-pyrazol-4-yl)-1H-pyrazolo[3,4-c]pyridine]",261
15,NC1CCN(c2cc(-c3n[nH]c4cnc(-c5cccnc5)cc34)ccn2)CC1 [Example 160],2.78
16,"c1ccc(-c2n[nH]c3cnc(-c4cncnc4)cc23)cc1 [Example 150, 3-phenyl-5-(pyrimidin-5-yl)-1H-pyrazolo[3,4-c]pyridine]",209
17,"FC(F)(F)c1cccc(-c2n[nH]c3cnc(-c4cccnc4)cc23)c1 [Example 126, 5-(pyridin-3-yl)-3-(3-(trifluoromethyl)phenyl)-1H-pyrazolo[3,4-c]pyridine]",15.9
18,"N[C@H]1CCCN(c2nc(-c3n[nH]c4cnc(-c5cccnc5)cc34)ccc2Br)C1 [Example 289, (S)-1-(3-bromo-6-(5-(pyridin-3-yl)-1H-pyrazolo[3,4-c]pyridin-3-yl)pyridin-2-yl)piperidin-3-amine]",0.017

row,SMILES,Ki [nM]
1,"Cn1cc(-c2cc3c(-c4ccc(Br)c(N5CCC[C@@H](O)C5)n4)n[nH]c3cn2)cn1 [Example 394, (R)-1-(3-bromo-6-(5-(1-methyl-1H-pyrazol-4-yl)-1H-pyrazolo[3,4-c]pyridin-3-yl)pyridin-2-yl)piperidin-3-ol]",0.316
2,"CCn1cncc(-c2cc3c(-c4cccc(N5CCNCC5)n4)n[nH]c3cn2)c1=O [Example 515, 3-ethyl-5-(3-(6-(piperazin-1-yl)pyridin-2-yl)-1H-pyrazolo[3,4-c]pyridin-5-yl)pyrimidin-4(3H)-one]",0.015
3,"CCn1cc(-c2cc3c(-c4cccc(N5CCC[C@@](C)(O)C5)n4)n[nH]c3cn2)cn1 [Example 460, (R)-1-(6-(5-(1-ethyl-1H-pyrazol-4-yl)-1H-pyrazolo[3,4-c]pyridin-3-yl)pyridin-2-yl)-3-methylpiperidin-3-ol]",0.265
4,"CCn1cc(-c2cc3c(-c4cncc(N5CCNCC5)n4)n[nH]c3cn2)cn1 [Example 479, 5-(1-ethyl-1H-pyrazol-4-yl)-3-(6-(piperazin-1-yl)pyrazin-2-yl)-1H-pyrazolo[3,4-c]pyridine]",0.064
5,"Fc1ccccc1-c1n[nH]c2cnc(-c3cncnc3)cc12 [Example 138, 3-(2-fluorophenyl)-5-(pyrimidin-5-yl)-1H-pyrazolo[3,4-c]pyridine]",577
6,"c1cc(-c2n[nH]c3cnc(C4CCOC4)cc23)nc(N2CCNCC2)c1 (stereo not drawn) [Example 212, 3-(6-(piperazin-1-yl)pyridin-2-yl)-5-(tetrahydrofuran-3-yl)-1H-pyrazolo[3,4-c]pyridine]",8.48
7,"O=C1OCCN1c1cc2c(-c3cccc(N4CCCCC4)n3)n[nH]c2cn1 [Example 373, 3-(3-(6-(piperidin-1-yl)pyridin-2-yl)-1H-pyrazolo[3,4-c]pyridin-5-yl)oxazolidin-2-one]",483
8,"CN1CC(c2cc3c(-c4ccccc4)n[nH]c3cn2)CC1=O (stereo not drawn) [Example 263, 1-methyl-4-(3-phenyl-1H-pyrazolo[3,4-c]pyridin-5-yl)pyrrolidin-2-one]",241
9,"Cc1n[nH]c2cnc(-c3cncc(N4CCC(N)CC4)n3)cc12 [Example 110, 1-(6-(3-methyl-1H-pyrazolo[3,4-c]pyridin-5-yl)pyrazin-2-yl)piperidin-4-amine]",5.8
10,"OC1CCN(c2nc(-c3n[nH]c4cnc(-c5cccnc5)cc34)ccc2Br)CC1 [Example 292, 1-(3-bromo-6-(5-(pyridin-3-yl)-1H-pyrazolo[3,4-c]pyridin-3-yl)pyridin-2-yl)piperidin-4-ol]",0.181
11,"CN1CCN(c2nc(-c3n[nH]c4cnc(-c5cccnc5)cc34)ccc2Cl)CC1 [Example 255, 3-(5-chloro-6-(4-methylpiperazin-1-yl)pyridin-2-yl)-5-(pyridin-3-yl)-1H-pyrazolo[3,4-c]pyridine]",0.113
12,"Cn1cc(-c2cc3c(-c4cccc(N5CCC[C@](C)(O)C5)n4)n[nH]c3cn2)cn1 [Example 423, (S)-3-methyl-1-(6-(5-(1-methyl-1H-pyrazol-4-yl)-1H-pyrazolo[3,4-c]pyridin-3-yl)pyridin-2-yl)piperidin-3-ol]",0.128
13,"CCn1cc(-c2cc3c(-c4cccc(N5CCNCC(F)(F)C5)n4)n[nH]c3cn2)cn1 [Example 447, 3-(6-(6,6-difluoro-1,4-diazepan-1-yl)pyridin-2-yl)-5-(1-ethyl-1H-pyrazol-4-yl)-1H-pyrazolo[3,4-c]pyridine]",0.029
14,"N[C@@H]1CCCN(c2nc(-c3n[nH]c4cnc(-c5cccnc5)cc34)ccc2Cl)C1 [Example 266, (R)-1-(3-chloro-6-(5-(pyridin-3-yl)-1H-pyrazolo[3,4-c]pyridin-3-yl)pyridin-2-yl)piperidin-3-amine]",0.06
15,"Cn1cc(-c2cc3c(-c4ccccn4)n[nH]c3cn2)cn1 [Example 332, 5-(1-methyl-1H-pyrazol-4-yl)-3-(pyridin-2-yl)-1H-pyrazolo[3,4-c]pyridine]",7.71
16,"Cc1ccc(-c2n[nH]c3cnc(-c4cccnc4)cc23)nc1N1CCC[C@@H](N)C1 [Example 310, (R)-1-(3-methyl-6-(5-(pyridin-3-yl)-1H-pyrazolo[3,4-c]pyridin-3-yl)pyridin-2-yl)piperidin-3-amine]",0.137
17,"N[C@H]1CCN(c2cccc(-c3n[nH]c4cnc(-c5cccnc5)cc34)n2)C1 [Example 268, (S)-1-(6-(5-(pyridin-3-yl)-1H-pyrazolo[3,4-c]pyridin-3-yl)pyridin-2-yl)pyrrolidin-3-amine]",0.0268
18,"N[C@H]1CCCN(c2cncc(-c3cc4c(-c5ccccc5F)n[nH]c4cn3)c2)C1 [Example 180, (S)-1-(5-(3-(2-fluorophenyl)-1H-pyrazolo[3,4-c]pyridin-5-yl)pyridin-3-yl)piperidin-3-amine]",0.264

# — US9260425B2 (Genetech, Inc., priority 2011, dated 2016)
